{
  "source": "paper PMC8476002",
  "about": "“Bergamottin a CYP3A inhibitor found in grapefruit juice inhibits prostate cancer cell growth by downregulating androgen receptor signaling and promoting G0/G1 cell cycle block and apoptosis” (PLoS ONE, 2021)",
  "key": {"LNCaP cells [1]": {"tested_on": "LNCaP cells", "assay": "MTT growth assay, LNCaP", "assay_type": "cell-based", "conditions": "Homo sapiens", "method": "(§1) Growth of the cells was measured using a MTT assay. Cells were plated (2000 cells/ 96 well or 13,000 cells/ 24 well) for 48 hours then treated with bergamottin for 4 days (96 hours) and then incubated with MTT (3-(4,5-Dimethylthiazol- 2-yl)-2,5-Diphenyltetrazolium bromide) (4 mg/ml) for 2 h. at 37°C. DMSO (vehicle control for bergamottin) levels were compensated in each bergamottin treatment group. Cells were centrifuged at 2000 g for 10 min and the supernatant was discarded. The cell pellet was dissolved in 100/500 μl of DMSO depending on the well size. A plate reader was used to read the absorption at 540 nm. Experiments were performed in octuplet/quadruplet and repeated at least three times."}, "[2]": {"tested_on": "RWPE1 cells (non transformed prostate epithelium)", "assay": "MTT growth assay, RWPE1", "assay_type": "cell-based, human", "method": "as §1"}, "MDAPCa2b cells [3]": {"tested_on": "MDAPCa2b cells", "assay": "TUNEL apoptosis detection assay, MDAPCa2b", "assay_type": "cell-based, human", "conditions": "10μM, 4 days", "method": "(§2) To detect apoptosis in the cells after bergamottin treatment In Situ cell death detection kit from Sigma-Aldrich (St. Louis, MO) was used. This apoptosis detection kit fluorescently labels the single and double-stranded DNA breaks caused due to apoptosis using terminal deoxynucleotidyl transferase (TUNEL-reaction). The cells were plated in poly- D- lysine coated 35 mm Glass bottom dish (Cellvis catalog# D35C4-20-1.5-N), treated with bergamottin for the specified time, and dosage and then stained with the kit reagents. The kit recommended protocol was followed. After the staining, the confocal microscope was used to procure images of the cells. The TUNEL assay preferentially labels apoptosis in comparison to necrosis and positive apoptosis is recognized when cells incorporate fluorescent labelled nucleotide (Ex 450 to 500nm and Em 515 to 565-green)."}, "LNCaP cells [4]": {"tested_on": "LNCaP cells", "assay": "TUNEL apoptosis detection assay, LNCaP", "assay_type": "cell-based, human", "conditions": "10μM, 4 days", "method": "as §2"}, "[5]": {"tested_on": "nuclear AR in LNCaP cells", "assay": "Cell fractionation, AR nuclear localization, LNCaP", "assay_type": "cell-based, human", "conditions": "bergamottin 10μM, with and without DHT induction", "method": "(§3) Cells were plated at 25–30% confluence when maintained in complete media. When the cells required DHT tretment and media replacement to charcoal stripped serum media (CSSM) they were plated at 35–40% confluence. Bergamottin is dissolved in DMSO (vehicle control) and the amount of DMSO at each treatment group was kept constant. After the completion of the treatment cells were washed in phosphate buffer (PBS) containing 2mMEDTA and 2mM EGTA and lysed in RIPA buffer (50 mM TRIS, 150 mM NaCl, 1% NP40, 0.5% sodium deoxycholate, 0.1% SDS, 2mM EDTA, 2mM EGTA) supplemented with protease and phosphatase inhibitors for total protein isolation. Protein estimation was performed using micro BCA assay and equal protein amponts were loaded on SDS-PAGE gels for western analysis. GAPDH was used as an internal control for total protein. Infrared fluorescent-labeled secondary antibodies were used for detection using Odyssey CLx. The bands were quantified using Odyssey software, which calculates pixel density and automatically takes an area adjacent to each band for background corrections.\nNuclear and cytoplasmic cell fractionation was prepared using NE-PER Nuclear and cytoplasmic extraction kit from Thermo Scientific (Cat no.78833) and manufacturer’s instructions were followed. […]"}, "[6]": {"tested_on": "PARP cleavage in LNCaP cells", "assay": "Western blot of PARP cleavage, LNCaP", "assay_type": "cell-based, human", "conditions": "5 and 10 μM for 96 hrs. and 20 μM for 48 hrs.", "method": "as §3\nCells were plated in complete media without antibiotics on poly D-lysine-coated plates (80,000 cells per 6 well). […]"}, "[7]": {"tested_on": "total AR in MDAPCa2b cells", "assay": "Western blotting of total AR, MDAPCa2b", "assay_type": "cell-based, human", "conditions": "bergamottin 10μM, CSSM", "method": "as §3"}, "LNCaP cells [8]": {"tested_on": "LNCaP cells", "assay": "Cell cycle analysis (propidium iodide, flow cytometry), LNCaP", "assay_type": "cell-based, human", "method": "(§4) Cell cycle analysis was performed after staining the cells with propidium iodide (PI). For long term bergamottin treatment (96 hrs.) cells were plated at 25–30% confluence and for short term bergamottin treatment (48 hrs.) they were plated at 30–35% confluence. After completion of specified treatment the cells were trypsinized washed with PBS and fixed in 70% ethanol and then stained with PI in nicoletti buffer (propidium iodide 50 μg/ml, 0.1% sodium citrate, 0.1% triton X-100, RNase 1 mg/ml, in DPBS). Cells were analyzed using C6 Accuri flow cytometer (Becton Dickinson, Mountainview, CA). FlowJo software was used to gate and remove the debris (gate on SSC and FSC) and aggregates (FL2 A and FL2H) from the analysis. Watson pragmatic and Dean-Jett -Fox methods was used to assign percentage frequencies to cells present in the different cell cycle stages."}, "MDAPCa2b cells [9]": {"tested_on": "MDAPCa2b cells", "assay": "Cell cycle analysis (propidium iodide, flow cytometry), MDAPCa2b", "assay_type": "cell-based, human", "method": "as §4"}},
  "data": [
    {"smiles": "CC(C)=CCC/C(C)=C/COc1c2ccoc2cc2oc(=O)ccc12", "note": "[bergamottin]", "values": [
      {"measurement": "inhibition at 10 µM", "setting": "LNCaP cells [1]; 10μM", "value": 60, "unit": "%"},
      {"measurement": "IC50", "setting": "LNCaP cells [1]; treatment 96 hours (methods) / 120 hours (Fig 1 legend), read-out: bergamottin concentration giving 50% growth reduction", "value": 2400, "unit": "nM"},
      {"measurement": "inhibition at 10 µM", "setting": "[2]; Homo sapiens, RWPE-1, RWPE1, 10μM", "value": 60, "unit": "%"},
      {"measurement": "effect on growth at lower concentration", "setting": "[2]; RWPE1, lower concentration", "value": "does not effect growth"},
      {"measurement": "DNA breaks (TUNEL, apoptosis)", "setting": "MDAPCa2b cells [3]", "value": "increased DNA breaks"},
      {"measurement": "DNA breaks (TUNEL, apoptosis)", "setting": "LNCaP cells [4]", "value": "increased DNA breaks"},
      {"measurement": "nuclear translocation of AR (cell fractionation)", "setting": "[5]", "value": "inhibited nuclear translocation of AR"},
      {"measurement": "PARP cleavage", "setting": "[6]", "value": "showed apoptosis (cleaved PARP)"},
      {"measurement": "downregulation of total AR levels", "setting": "[7]", "value": 50, "unit": "%"},
      {"measurement": "G1 frequency, Dean-Jett-Fox", "setting": "LNCaP cells [8]; Berg 5μM, 96 hrs.", "value": "90.81 ±1.7", "unit": "%"},
      {"measurement": "G2 frequency, Dean-Jett-Fox", "setting": "LNCaP cells [8]; Berg 5μM, 96 hrs.", "value": "10.53 ±1.0", "unit": "%"},
      {"measurement": "G2 frequency, Watson Pragmatic", "setting": "LNCaP cells [8]; Berg 5μM, 96 hrs.", "value": "8.59 ±3.0", "unit": "%"},
      {"measurement": "S frequency, Dean-Jett-Fox", "setting": "LNCaP cells [8]; Berg 5μM, 96 hrs.", "value": "-0.3 ±2.3", "unit": "%"},
      {"measurement": "S frequency, Watson Pragmatic", "setting": "LNCaP cells [8]; Berg 5μM, 96 hrs.", "value": "0.32±4.3", "unit": "%"},
      {"measurement": "G1 frequency, Dean-Jett-Fox", "setting": "LNCaP cells [8]; Berg 10μM, 96 hrs.", "value": "95.1 ±3.4", "unit": "%"},
      {"measurement": "G2 frequency, Dean-Jett-Fox", "setting": "LNCaP cells [8]; Berg 10μM, 96 hrs.", "value": "0.22 ±0.4", "unit": "%"},
      {"measurement": "G2 frequency, Watson Pragmatic", "setting": "LNCaP cells [8]; Berg 10μM, 96 hrs.", "value": "10.07 ±0.9", "unit": "%"},
      {"measurement": "S frequency, Dean-Jett-Fox", "setting": "LNCaP cells [8]; Berg 10μM, 96 hrs.", "value": "-0.03 ±1.1", "unit": "%"},
      {"measurement": "S frequency, Watson Pragmatic", "setting": "LNCaP cells [8]; Berg 10μM, 96 hrs.", "value": "-1.17 ±4.5", "unit": "%"},
      {"measurement": "G1 frequency, Dean-Jett-Fox", "setting": "LNCaP cells [8]; Berg 20μM, 48 hrs.", "value": "86.7 ±2.3", "unit": "%"},
      {"measurement": "G2 frequency, Dean-Jett-Fox", "setting": "LNCaP cells [8]; Berg 20μM, 48 hrs.", "value": "15.3 ±1.0", "unit": "%"},
      {"measurement": "G2 frequency, Watson Pragmatic", "setting": "LNCaP cells [8]; Berg 20μM, 48 hrs.", "value": "13.4 ±4.3", "unit": "%"},
      {"measurement": "S frequency, Dean-Jett-Fox", "setting": "LNCaP cells [8]; Berg 20μM, 48 hrs.", "value": "-9.8 ±3.0", "unit": "%"},
      {"measurement": "S frequency, Watson Pragmatic", "setting": "LNCaP cells [8]; Berg 20μM, 48 hrs.", "value": "4.8 ±3.5", "unit": "%"},
      {"measurement": "G1 frequency, Dean-Jett-Fox", "setting": "LNCaP cells [8]; Berg 30μM, 48 hrs.", "value": "96.2 ±3.6", "unit": "%"},
      {"measurement": "G2 frequency, Dean-Jett-Fox", "setting": "LNCaP cells [8]; Berg 30μM, 48 hrs.", "value": "7.7 ±0.9", "unit": "%"},
      {"measurement": "G2 frequency, Watson Pragmatic", "setting": "LNCaP cells [8]; Berg 30μM, 48 hrs.", "value": "6.3 ±2.3", "unit": "%"},
      {"measurement": "S frequency, Dean-Jett-Fox", "setting": "LNCaP cells [8]; Berg 30μM, 48 hrs.", "value": "-8.4 ±4.5", "unit": "%"},
      {"measurement": "S frequency, Watson Pragmatic", "setting": "LNCaP cells [8]; Berg 30μM, 48 hrs.", "value": "3.7 ±2.6", "unit": "%"},
      {"measurement": "G1 frequency, Dean-Jett-Fox", "setting": "MDAPCa2b cells [9]; Berg 5μM, 96 hrs.", "value": "84.2 ±1.5", "unit": "%"},
      {"measurement": "G2 frequency, Dean-Jett-Fox", "setting": "MDAPCa2b cells [9]; Berg 5μM, 96 hrs.", "value": "2.3 ±2.2", "unit": "%"},
      {"measurement": "G2 frequency, Watson Pragmatic", "setting": "MDAPCa2b cells [9]; Berg 5μM, 96 hrs.", "value": "8.4 ±1.6", "unit": "%"},
      {"measurement": "S frequency, Dean-Jett-Fox", "setting": "MDAPCa2b cells [9]; Berg 5μM, 96 hrs.", "value": "12.2 ±1.0", "unit": "%"},
      {"measurement": "S frequency, Watson Pragmatic", "setting": "MDAPCa2b cells [9]; Berg 5μM, 96 hrs.", "value": "7.7 ±2.6", "unit": "%"},
      {"measurement": "G1 frequency, Dean-Jett-Fox", "setting": "MDAPCa2b cells [9]; Berg 10μM, 96 hrs.", "value": "88.8 ±2.0", "unit": "%"},
      {"measurement": "G2 frequency, Dean-Jett-Fox", "setting": "MDAPCa2b cells [9]; Berg 10μM, 96 hrs.", "value": "3.3 ±0.3", "unit": "%"},
      {"measurement": "G2 frequency, Watson Pragmatic", "setting": "MDAPCa2b cells [9]; Berg 10μM, 96 hrs.", "value": "6.6 ±1.2", "unit": "%"},
      {"measurement": "S frequency, Dean-Jett-Fox", "setting": "MDAPCa2b cells [9]; Berg 10μM, 96 hrs.", "value": "7.4 ±2.5", "unit": "%"},
      {"measurement": "S frequency, Watson Pragmatic", "setting": "MDAPCa2b cells [9]; Berg 10μM, 96 hrs.", "value": "5.8 ±2.8", "unit": "%"},
      {"measurement": "G1 frequency, Dean-Jett-Fox", "setting": "MDAPCa2b cells [9]; Berg 20μM, 48 hrs.", "value": "84.9 ±0.4", "unit": "%"},
      {"measurement": "G2 frequency, Dean-Jett-Fox", "setting": "MDAPCa2b cells [9]; Berg 20μM, 48 hrs.", "value": "9.6 ±0.5", "unit": "%"},
      {"measurement": "G2 frequency, Watson Pragmatic", "setting": "MDAPCa2b cells [9]; Berg 20μM, 48 hrs.", "value": "9.6 ±1.8", "unit": "%"},
      {"measurement": "S frequency, Dean-Jett-Fox", "setting": "MDAPCa2b cells [9]; Berg 20μM, 48 hrs.", "value": "6.7 ±0.7", "unit": "%"},
      {"measurement": "S frequency, Watson Pragmatic", "setting": "MDAPCa2b cells [9]; Berg 20μM, 48 hrs.", "value": "7.1 ±1.7", "unit": "%"},
      {"measurement": "G1 frequency, Dean-Jett-Fox", "setting": "MDAPCa2b cells [9]; Berg 30μM, 48 hrs.", "value": "88.4 ±3.6", "unit": "%"},
      {"measurement": "G2 frequency, Dean-Jett-Fox", "setting": "MDAPCa2b cells [9]; Berg 30μM, 48 hrs.", "value": "6.8 ±3.2", "unit": "%"},
      {"measurement": "G2 frequency, Watson Pragmatic", "setting": "MDAPCa2b cells [9]; Berg 30μM, 48 hrs.", "value": "8.4 ±1.1", "unit": "%"},
      {"measurement": "S frequency, Dean-Jett-Fox", "setting": "MDAPCa2b cells [9]; Berg 30μM, 48 hrs.", "value": "3.3 ±3.4", "unit": "%"},
      {"measurement": "S frequency, Watson Pragmatic", "setting": "MDAPCa2b cells [9]; Berg 30μM, 48 hrs.", "value": "5.6 ±0.5", "unit": "%"}
    ]}
  ]
}
